From US6391575B1, “Methods for detecting membrane derived caspase activity and modulators thereof” (IDUN Pharmaceuticals, Inc., priority 1999, dated 2002)

Columns and labels:
[1] = target: T1, membrane-derived caspases (Homo sapiens, UniProt P42574); assay: Kinetics of DEVD-amc hydrolysis by membrane-derived caspases; type: biochemical; settings: substrate concentration varied 1-100 μM
T1 construct: endogenous in cells
T1 sequence (P42574 29-175 limits assumed): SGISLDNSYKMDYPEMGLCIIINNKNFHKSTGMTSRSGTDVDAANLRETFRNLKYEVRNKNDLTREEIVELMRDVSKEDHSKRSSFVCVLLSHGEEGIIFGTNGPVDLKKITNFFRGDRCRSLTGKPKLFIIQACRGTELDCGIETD
T1 sequence (P42574 176-277 limits assumed): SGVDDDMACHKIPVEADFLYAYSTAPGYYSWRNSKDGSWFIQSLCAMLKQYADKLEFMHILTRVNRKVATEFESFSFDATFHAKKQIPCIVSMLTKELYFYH
Method: Caspase activity was measured by mixing 50 μl of an enzyme-containing fraction and 200 μl of 25 μM DEVD-amc (Asp-Glu-Val-Asp-aminomethylcoumarin) substrate in ICE buffer (20 mM HEPES, 1 mM EDTA, 0.1% CHAPS, 10% sucrose, 5 mM DTT, pH 7.5) in duplicate Cytoplate wells. Product formation was monitored by the increase in fluorescence (ex=360 nm, em=460 nm) over 1-2 hours at 30 ° C. using the CytoFluor 4000 plate reader (Perseptive Biosystems, Framingham, Mass.). For kinetic studies, the substrate concentration was varied in the range 1-100 μM. For inhibition studies the enzyme was pretreated with 150 μl inhibitor for 30 min at room temperature prior to the addition of 50 μl of 50 μM substrate solution. Inhibitor IC50 values were determined using the equation: […]
The membrane-derived caspase activities were further characterized by measuring the inhibition of DEVD-amc cleavage by several peptide aldehyde inhibitors (Table I). […] The observed IC50 values for the membrane associated caspases are very similar to those for purified fully-processed recombinant human caspase-3. […] N-terminal microsequence analysis of activated, affinity purified heavy membrane caspase confirms that this enzyme is indeed human caspase-3.

[2] = test system: caspase-3 in cytoplasmic fractions (697-neo and 697-Bcl-2 cells); assay: Effect of exogenous cytochrome c on cytoplasmic fraction caspase activity; type: biochemical, human; settings: cytochrome c during fractionation and assay; neo and Bcl-2 cells; FIG. 6B
Method: (§1) Frozen cell pellets containing ≈10^9 cells were thawed and resuspended in cold hypotonic buffer (10 mM Na-HEPES, 5 mM MgCl2, 42 mM KCl, pH 7.4) supplemented with 1 mM PMSF, 1 μg/ml leupeptin, 1 μg/ml pepstatin A, 5 μg/ml aprotinin, 0.1 mM EDTA, 0.1 mM EGTA and 5 mM DTT (Sigma) to a density of ≈1.5×10^8 cells/ml. The samples were incubated on ice for 30 min at which time the cells were lysed using 30-40 strokes with a Dounce homogenizer. The sample was centrifuged twice for 10 min at 500×g, 4° C. to separate the nuclei. The nuclear pellets were then washed twice in the same buffer supplemented with 1.6M sucrose, yielding the nuclear fraction. The supernatant was then centrifuged at 14,000×g for 30 min at 4° C. to pellet the heavy membranes. […] Protein concentrations were measured using Protein Assay Kit II from BioRad with bovine serum albumin as the calibration standard. […]
(§2) Heavy membrane samples were diluted to 1 mg/ml in hypotonic buffer or in 0.25 M sucrose, 10 mM MOPS, 2 mM EDTA, pH 7.4 (Mancini, et al., 1998) containing 5 mM DTT with or without 1% NP-40. […] To examine the time course of spontaneous activation of caspase activity from membranes, 50 μl of heavy membrane slurry containing 50-100 μg total protein was mixed with 200 μl hypotonic buffer containing 25 μM DEVD-amc substrate and 6 mM DTT in 96 well Cytofluor plates and fluorescence was measured over time. […]

[3] = test system: membrane-associated procaspase-3 (697-neo and 697-Bcl-2 heavy membranes); assay: Effect of exogenous cytochrome c on heavy membrane caspase activity; type: biochemical, human; settings: 10 μg/ml bovine cytochrome c during fractionation; 1 μg/ml cytochrome c plus dATP, 40 min at 30° C.; FIG. 6A
Method: as §1, §2

Acetyl-Asp-Glu-Val-Asp-aminomethylcoumarin [DEVD-amc]
Km [1]: 10 µM

cytochrome c: bovine cytochrome c (Sigma)
Effect on DEVD-amc cleavage activity of cytoplasmic fractions [2]: strongly activated
Effect on membrane-derived caspase activity (DEVD-amc cleavage) [3]: no effect
